Some results are limits rather than exact numbers.

Consider 21 compounds from patent US20230159532A1, “PARATHYROID HORMONE (PTH) RECEPTOR ANTAGONISTS AND USES THEREOF” (Crinetics Pharmaceuticals, Inc., priority 2021, published 2023).

The target of the assay is T1, human PTHR1 receptor (Homo sapiens, UniProt Q03431).
T1 construct: purchased Eurofins HTS030M
T1 sequence (Q03431 27-593): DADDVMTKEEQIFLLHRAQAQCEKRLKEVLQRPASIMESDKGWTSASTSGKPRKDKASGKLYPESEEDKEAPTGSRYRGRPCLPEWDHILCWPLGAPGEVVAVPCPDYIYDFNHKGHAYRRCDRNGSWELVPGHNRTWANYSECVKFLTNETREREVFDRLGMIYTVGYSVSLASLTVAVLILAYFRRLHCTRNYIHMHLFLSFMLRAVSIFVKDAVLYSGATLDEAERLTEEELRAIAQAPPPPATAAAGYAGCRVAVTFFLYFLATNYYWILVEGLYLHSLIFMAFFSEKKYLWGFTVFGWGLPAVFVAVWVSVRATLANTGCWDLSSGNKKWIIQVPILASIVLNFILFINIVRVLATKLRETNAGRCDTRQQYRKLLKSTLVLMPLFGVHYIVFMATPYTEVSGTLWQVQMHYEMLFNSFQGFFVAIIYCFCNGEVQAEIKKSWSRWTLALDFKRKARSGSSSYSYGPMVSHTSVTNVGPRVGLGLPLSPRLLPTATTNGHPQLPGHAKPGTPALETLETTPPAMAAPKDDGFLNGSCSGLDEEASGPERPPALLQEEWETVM
In words: Competitive antagonist binding assay for hPTH-R1 (radioactive competition binding, SPA beads). The following applies: human PTHR1 membranes, [125I]-[Nle8,18,Tyr34]-PTH(1-34) 0.2 nM, 90 minutes at room temperature; read-out: hPTHR1 Ki. The essentials: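 Displacement of 0.2 nM radioiodinated [Nle8,18,Tyr34]-PTH(1-34) from membrane-bound human PTHR1 measured by scintillation proximity after 90 min at room temperature. Compounds typically 0-10,000 nM final, pH 7.4 HEPES/Mg/Ca buffer with BSA and detergent. Ki calculated from competition data.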

On to `O=C1N(CC2CC2)c2ncc(Cl)cc2-c2ccc(Cl)cc2N1c1c(F)cc(NCCNCCO)cc1F` [1-52, 4,13-dichloro-8-(cyclopropylmethyl)-10-[2,6-difluoro-4-({2-[(2-hydroxyethyl)amino]ethyl}amino)phenyl]-6,8,10-triazatricyclo[9.4.0.0^2,7]pentadeca-1(11),2(7),3,5,12,14-hexaen-9-one], for which the Ki is under 100 nM.
Turning to `CCN1C(=O)N(c2c(F)cc(NCCN[C@@H]3CC[C@@H]3O)cc2F)c2cc(C#N)ccc2-c2cc(F)cnc21` [1-204, 10-{2,6-difluoro-4-[(2-{[(1R,2S)-2-hydroxycyclobutyl]amino}ethyl)amino]phenyl}-8-ethyl-4-fluoro-9-oxo-6,8,10-triazatricyclo[9.4.0.0^2,7]pentadeca-1(11),2(7),3,5,12,14-hexaene-13-carbonitrile], the Ki was under 100 nM.
On to `CNCCNc1cc(F)c(N2C(=O)N(CC(F)(F)F)c3ncc(Cl)cc3-c3ccc(Cl)cc32)c(F)c1` [1-45, 4,13-dichloro-10-(2,6-difluoro-4-{[2-(methylamino)ethyl]amino}phenyl)-8-(2,2,2-trifluoroethyl)-6,8,10-triazatricyclo[9.4.0.0^2,7]pentadeca-1(11),2(7),3,5,12,14-hexaen-9-one], for which the Ki was under 100 nM.
`CCN1C(=O)N(c2c(F)cc(NCCNC3CCOCC3)cc2F)c2cc(Cl)ccc2-c2cc(F)cnc21` [1-19, 13-chloro-10-[2,6-difluoro-4-({2-[(oxan-4-yl)amino]ethyl}amino)phenyl]-8-ethyl-4-fluoro-6,8,10-triazatricyclo[9.4.0.0^2,7]pentadeca-1(11),2(7),3,5,12,14-hexaen-9-one]: the Ki is under 100 nM.
As for `CCN1C(=O)N(c2c(F)cc(NCCN[C@H]3C[C@H](O)C3)cc2F)c2cc(C#N)ccc2-c2cc(C(F)(F)F)cnc21` [1-224, 10-{2,6-difluoro-4-[(2-{[(1r,3r)-3-hydroxycyclobutyl]amino}ethyl)amino]phenyl}-8-ethyl-9-oxo-4-(trifluoromethyl)-6,8,10-triazatricyclo[9.4.0.0^2,7]pentadeca-1(11),2(7),3,5,12,14-hexaene-13-carbonitrile], the figure is under 100 nM; as for `CCN1C(=O)N(c2c(F)cc(N3CC(CN)C3)cc2F)c2cc(C#N)ccc2-c2cc(F)cnc21` [1-123, 10-{4-[3-(aminomethyl)azetidin-1-yl]-2,6-difluorophenyl}-8-ethyl-4-fluoro-9-oxo-6,8,10-triazatricyclo[9.4.0.0^2,7]pentadeca-1(11),2(7),3,5,12,14-hexaene-13-carbonitrile], under 100 nM.
As for `CCCN1C(=O)N(c2c(F)cc(NCCNCCO)cc2F)c2cc(C#N)cc(F)c2-c2cc(F)cnc21` [1-125, 10-[2,6-difluoro-4-({2-[(2-hydroxyethyl)amino]ethyl}amino)phenyl]-4,15-difluoro-9-oxo-8-propyl-6,8,10-triazatricyclo[9.4.0.0^2,7]pentadeca-1(11),2(7),3,5,12,14-hexaene-13-carbonitrile], the figure is under 100 nM; as for `CCN1C(=O)N(c2c(F)cc(NCCNCC(=O)O)cc2F)c2cc(C#N)ccc2-c2cc(Cl)cnc21` [1-215, 2-({2-[(4-{4-chloro-13-cyano-8-ethyl-9-oxo-6,8,10-triazatricyclo[9.4.0.0^2,7]pentadeca-1(11),2(7),3,5,12,14-hexaen-10-yl}-3,5-difluorophenyl)amino]ethyl}amino)acetic acid], under 100 nM.
With `CCN1C(=O)N(c2c(F)cc(NCCNCCC(N)=O)cc2F)c2cc(C#N)ccc2-c2cc(Cl)cnc21` [1-161, 3-({2-[(4-{4-chloro-13-cyano-8-ethyl-9-oxo-6,8,10-triazatricyclo[9.4.0.0^2,7]pentadeca-1(11),2(7),3,5,12,14-hexaen-10-yl}-3,5-difluorophenyl)amino]ethyl}amino)propanamide], the inhibition constant (Ki) is under 100 nM.
As for `CCN1C(=O)N(c2c(F)cc(NC[C@H]3COCCN3)cc2F)c2cc(C#N)ccc2-c2cc(Cl)cnc21` [1-147, 4-chloro-10-[2,6-difluoro-4-({[(3S)-morpholin-3-yl]methyl}amino)phenyl]-8-ethyl-9-oxo-6,8,10-triazatricyclo[9.4.0.0^2,7]pentadeca-1(11),2(7),3,5,12,14-hexaene-13-carbonitrile], the Ki is under 100 nM.
As to `CNCCNc1cc(F)c(N2C(=O)N(CC3CC3)c3ncc(Cl)cc3-c3ccc(Cl)cc32)c(F)c1` [1-46, 4,13-dichloro-8-(cyclopropylmethyl)-10-(2,6-difluoro-4-{[2-(methylamino)ethyl]amino}phenyl)-6,8,10-triazatricyclo[9.4.0.0^2,7]pentadeca-1(11),2(7),3,5,12,14-hexaen-9-one], the Ki is under 100 nM.
On to `CCN1C(=O)N(c2c(F)cc(NCCN(C)CCCC(=O)O)cc2F)c2cc(Cl)ccc2-c2cc(Cl)cnc21` [1-70, 4-({2-[(4-{4,13-dichloro-8-ethyl-9-oxo-6,8,10-triazatricyclo[9.4.0.0^2,7]pentadeca-1(11),2(7),3,5,12,14-hexaen-10-yl}-3,5-difluorophenyl)amino]ethyl}(methyl)amino)butanoic acid], for which the inhibition constant Ki is under 100 nM.
For `CCN1C(=O)N(c2c(F)cc(NCCNCCOC(N)=O)cc2F)c2cc(C#N)ccc2-c2cc(Cl)cnc21` [1-189, 2-({2-[(4-{4-chloro-13-cyano-8-ethyl-9-oxo-6,8,10-triazatricyclo[9.4.0.0^2,7]pentadeca-1(11),2(7),3,5,12,14-hexaen-10-yl}-3,5-difluorophenyl)amino]ethyl}amino)ethyl carbamate], the inhibitory constant (Ki) is under 100 nM.
Regarding `CCN1C(=O)N(c2c(F)cc(NCCNC[C@@H](C)O)cc2F)c2cc(C#N)ccc2-c2cc(Cl)cnc21` [1-186, 4-chloro-10-{2,6-difluoro-4-[(2-{[(2R)-2-hydroxypropyl]amino}ethyl)amino]phenyl}-8-ethyl-9-oxo-6,8,10-triazatricyclo[9.4.0.0^2,7]pentadeca-1(11),2(7),3,5,12,14-hexaene-13-carbonitrile], the Ki was under 100 nM.
As to `O=C1N(CC(F)(F)F)c2ncc(Cl)cc2-c2ccc(Cl)cc2N1c1c(F)cc(NCCNCCO)cc1F` [1-48, 4,13-dichloro-10-[2,6-difluoro-4-({2-[(2-hydroxyethyl)amino]ethyl}amino)phenyl]-8-(2,2,2-trifluoroethyl)-6,8,10-triazatricyclo[9.4.0.0^2,7]pentadeca-1(11),2(7),3,5,12,14-hexaen-9-one], the Ki was under 100 nM.
For the compound `CCN1C(=O)N(c2c(F)cc(NCCNCC3CCCN3)cc2F)c2cc(C#N)ccc2-c2cc(Cl)cnc21` (stereo not drawn) [1-238, 4-chloro-10-{2,6-difluoro-4-[(2-{[(pyrrolidin-2-yl)methyl]amino}ethyl)amino]phenyl}-8-ethyl-9-oxo-6,8,10-triazatricyclo[9.4.0.0^2,7]pentadeca-1(15),2(7),3,5,11,13-hexaene-13-carbonitrile], the Ki is under 100 nM.
`CCN1C(=O)N(c2c(F)cc(NCCNCCO)cc2F)c2cc(Cl)ccc2-c2nc(C#N)ccc21` [3-15, 13-chloro-10-[2,6-difluoro-4-({2-[(2-hydroxyethyl)amino]ethyl}amino)phenyl]-8-ethyl-9-oxo-3,8,10-triazatricyclo[9.4.0.0^2,7]pentadeca-1(11),2(7),3,5,12,14-hexaene-4-carbonitrile]: the inhibition constant (Ki) was in the range of 1000 to 10000 nM.
In the case of `CCN1C(=O)N(c2c(F)cc(NCCN3CCC(O)C3)cc2F)c2cc(C#N)ccc2-c2cc(Cl)cnc21` (stereo not drawn) [1-164, 4-chloro-10-(2,6-difluoro-4-{[2-(3-hydroxypyrrolidin-1-yl)ethyl]amino}phenyl)-8-ethyl-9-oxo-6,8,10-triazatricyclo[9.4.0.0^2,7]pentadeca-1(11),2(7),3,5,12,14-hexaene-13-carbonitrile], the Ki was under 100 nM.
Take `CCN1C(=O)N(c2c(F)cc(NCCNCCCC(=O)O)cc2F)c2cc(C#N)cc(F)c2-c2cc(F)cnc21` [1-104, 4-({2-[(4-{13-cyano-8-ethyl-4,15-difluoro-9-oxo-6,8,10-triazatricyclo[9.4.0.0^2,7]pentadeca-1(11),2(7),3,5,12,14-hexaen-10-yl}-3,5-difluorophenyl)amino]ethyl}amino)butanoic acid]: the Ki is under 100 nM.
Take `CC(C)N1C(=O)N(c2c(F)cc(NCCNCCO)cc2F)c2cc(Cl)cc(F)c2-c2cc(F)cnc21` [1-114, 13-chloro-10-[2,6-difluoro-4-({2-[(2-hydroxyethyl)amino]ethyl}amino)phenyl]-4,15-difluoro-8-(propan-2-yl)-6,8,10-triazatricyclo[9.4.0.0^2,7]pentadeca-1(11),2(7),3,5,12,14-hexaen-9-one]: the Ki is under 100 nM.
With `CCN1C(=O)N(c2c(F)cc(NCCNCCO)cc2F)c2cc(C#N)cc(F)c2-c2cc(Cl)cnc21` [1-100, 4-chloro-10-[2,6-difluoro-4-({2-[(2-hydroxyethyl)amino]ethyl}amino)phenyl]-8-ethyl-15-fluoro-9-oxo-6,8,10-triazatricyclo[9.4.0.0^2,7]pentadeca-1(11),2(7),3,5,12,14-hexaene-13-carbonitrile], the Ki is under 100 nM.

Broadly, the Ki is the equilibrium dissociation constant of an inhibitor or competing ligand from its target.
